Like-named read-outs stand apart in the source and are kept apart here.
Experiments:
[1] = molecular target: wild-type AM2 channel (AM2-WT) (Influenza A virus, UniProt P0DOF5); experiment: biochemical; conditions: pH 5.5, read-out: Electrophysiological TEVC assay (% WT channel inhibition), 100 μM, two-minute time point, pH 5.5, Xenopus laevis oocytes
[2] = system: A/California/07/2009 (H1N1) virus; experiment: microbe, parasite or virus in culture; assay type: cell-based, influenza A virus; conditions: for activity at 10 µM: read-out: % plaque formation at 10 μM drug concentration against A/California/07/2009 (H1N1); for EC50: read-out: EC50 against A/California/07/2009 (H1N1)

wild-type AM2 channel (AM2-WT), sequence (P0DOF5 whole entry): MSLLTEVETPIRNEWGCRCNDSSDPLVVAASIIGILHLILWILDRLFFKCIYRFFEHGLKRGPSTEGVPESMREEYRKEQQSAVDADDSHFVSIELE

## c1ccc(-c2cc(CNC34CC5CC(CC(C5)C3)C4)no2)cc1 [9a, N-[(5-phenyl-1,2-oxazol-3-yl)methyl]adamantan-1-amine]
[1]
  inhibition at 100 µM: ≤ 30%
[2]; Influenza A virus, H1N1, MDCK
  activity at 10 µM: < 20%
  EC50: 100 to 1200 nM

## OC12CC3CC(C1)CC(NCc1cc(-c4ccccc4Cl)on1)(C3)C2 [9d, 3-({[5-(2-chlorophenyl)-1,2-oxazol-3-yl]methyl}amino)adamantan-1-ol]
[1]
  inhibition at 100 µM: ≤ 30%
[2]; Influenza A virus, H1N1, MDCK
  activity at 10 µM: < 20%
  EC50: 100 to 1200 nM

## CSc1ccccc1-c1cc(CNC23CC4CC(CC(O)(C4)C2)C3)no1 [9f, 3-[({5-[2-(methylsulfanyl)phenyl]-1,2-oxazol-3-yl}methyl)amino]adamantan-1-ol]
[1]
  inhibition at 100 µM: ≤ 30%
[2]; Influenza A virus, H1N1, MDCK
  activity at 10 µM: < 20%
  EC50: 100 to 1200 nM

## Oc1ccccc1-c1cc(CNC23CC4CC(CC(C4)C2)C3)no1 [9h, 2-(3-(((adamantan-1-yl)amino)methyl)isoxazol-5-yl)phenol]
[1]
  inhibition at 100 µM: ≤ 30%
[2]; Influenza A virus, H1N1, MDCK
  activity at 10 µM: < 20%
  EC50: 100 to 1200 nM

## Clc1ccc(-c2cc(CNC34CC5CC(CC(C5)C3)C4)no2)s1 [9q, N-((5-(5-chlorothiophen-2-yl)isoxazol-3-yl)methyl)adamantan-1-amine]
[2]
  % plaque formation at 10 μM drug concentration against A/California/07/2009 (H1N1): 0%
  EC50: 100 ± 30 nM
[2]; Influenza A virus, H1N1, MDCK
  activity at 10 µM: < 20%

## Clc1cc(-c2cc(CNC34CC5CC(CC(C5)C3)C4)no2)cs1 [9r, N-((5-(5-chlorothiophen-3-yl)isoxazol-3-yl)methyl)adamantan-1-amine]
[2]; Influenza A virus, H1N1, MDCK
  activity at 10 µM: < 20%

## COc1sccc1-c1cc(CNC23CC4CC(CC(C4)C2)C3)no1 [9t, N-((5-(2-methoxythiophen-3-yl)isoxazol-3-yl)methyl)adamantan-1-amine]
[1]
  inhibition at 100 µM: ≤ 30%
[2]; Influenza A virus, H1N1, MDCK
  activity at 10 µM: < 20%

## Clc1cc(-c2cc(CNC34CC5CC(CC(C5)C3)C4)no2)c(Cl)s1 [9u, N-((5-(2,5-dichlorothiophen-3-yl)isoxazol-3-yl)methyl)adamantan-1-amine]
[2]; Influenza A virus, H1N1, MDCK
  activity at 10 µM: < 20%

## OC12CC3CC(C1)CC(NCc1cc(-c4cc(Cl)sc4Cl)on1)(C3)C2 [9v, 3-({[5-(2,5-dichlorothiophen-3-yl)-1,2-oxazol-3-yl]methyl}amino)adamantan-1-ol]
[2]; Influenza A virus, H1N1, MDCK
  activity at 10 µM: < 20%

## N-((5-(2-(methylsulfonyl)phenyl)isoxazol-3-yl)methyl)adamantan-1-amine [9m]
[2]
  % plaque formation at 10 μM drug concentration against A/California/07/2009 (H1N1): 57.1 ± 2.4%
